In patent publication US20030125314A1, “Photodynamic therapy for the treatment of epilepsy” (priority 2001, published 2003):

Tests used:
[1] = test system: rat model of epilepsy (kindled rats); experiment: Morris Water Maze (spatial learning and memory) after photodynamic therapy; assay type: in vivo, Sprague-Dawley rats; details: ALA 400 mg/Kg IV, 635 nm laser 10 min at 4 h, vs control animals, F(3,27)=0.920, p=0.445 between groups
Excerpt: To assess behavioral outcome, thirty-one Sprague-Dawley rats were placed into four groups to test the effects of PDT treatment parameters. All animals underwent a behavioral battery that included the Morris Water Maze (MWM), selected to assess one aspect of hippocampal function, spatial learning and memory and incline plane (IP) to screen for motor injury. […] Male Sprague-Dawley rats (275 g) had bipolar stimulating electrodes stereotactically implanted under surgical anesthesia at 7.4 mm posterior to Bregma and 4.1 lateral to the midline through a 1.5 mm craniotomy. […] ALA (400 mg/Kg) was injected intravenously through a femoral vein catheter. […] Four hours post drug administration animals were anesthetized and stereotactically positioned. […] A 4 mm diameter was created and a laser was positioned 2.3 mm from the surface of the brain. […] Laser light was focused on the brain for 10 minutes at a wavelength of 635 nanometers. […] All animals participated in the MWM test which was conducted over 5 consecutive days.

[2] = test system: rat model of epilepsy (kindled rats); experiment: Incline Plane test (motor/grip strength) after photodynamic therapy; assay type: in vivo, Sprague-Dawley rats; details: ALA 400 mg/Kg IV, 635 nm laser 10 min, vs control groups, F(3,27)=1.616, p=0.209 between groups
Method: To assess behavioral outcome, thirty-one Sprague-Dawley rats were placed into four groups to test the effects of PDT treatment parameters. All animals underwent a behavioral battery that included the Morris Water Maze (MWM), selected to assess one aspect of hippocampal function, spatial learning and memory and incline plane (IP) to screen for motor injury. […] ALA (400 mg/Kg) was injected intravenously through a femoral vein catheter. […] Four hours post drug administration animals were anesthetized and stereotactically positioned. […] A 4 mm diameter was created and a laser was positioned 2.3 mm from the surface of the brain. […] Laser light was focused on the brain for 10 minutes at a wavelength of 635 nanometers. […] This test was selected because it can evaluate bilateral grip strength and we used this test to screen for any motor and/or coordination deficiencies resulting for the surgical craniectomy or laser effect on the cortex. […] Any sign of hemiparesis may indicate undesired cortical injury. […] This test involves the initial placement of the animal at a 65 degree angle to the horizontal. The flat plane can move up or down at intervals of 5 degrees, until they are at an angle where they can hold their position without sliding down. Then the opposite side is tested. Animals are evaluated on this task on days 1-4 before going on to the MWM.

[3] = test system: CA1 and CA3 regions of the kindled hippocampus; experiment: Fluorojade histofluorescence analysis of cell death after laser-induced PDT; assay type: in vivo, rat; details: 24 hours after laser-induced PDT of ALA-treated animals
Method: The Wilson laboratory at the University of Toronto has previously measured apoptotic cell death at 24 hours following PDT and our Fluorojade results are consistent with their findings. Lilge et al. (2000) have shown that necrotic and apoptotic cell death are a function of the laser exposure (a variable easy to control) and not extent of ALA uptake or conversion.
Fluorojade (Histo-Chem, Inc) staining will be carried out on 20 micron cryostat-prepared brain sections. Tissue sections are mounted onto gelatinized slides and allowed to dry at room temp. Using a staining rack, slides are immersed in 100% EtOH (3 min), in 70% EtOH (1 min), in distilled water (1 min), and then in 0.06% solution of potassium permanganate (15 min, shaking gently). Slides are rinsed in distilled water, and then immersed in a 0.001% Fluoro-Jade solution (away from light, 30 min, shaking gently) following steps carried out in dim light). Still in dim light, slides are then rinsed, dried, dehydrated (xylene), and coverslipped. Stained slides, viewed with a fluorescence microscope (FITC filter), reveal apoptotic cells as brightly green.

kindled rats [4] = experiment: Beam walk test to assess paresis after photodynamic therapy; assay type: in vivo, rat; details: animals completing the photodynamic therapy protocol, compared to historic controls
Excerpt: (§1) In our study, animals completing the photodynamic therapy protocol recovered from surgery and underwent behavioral testing using the beam walk test to assess paresis and the Morris Water Maze to assess hippocampus related learning.

kindled rats [5] = experiment: Morris Water Maze after photodynamic therapy, compared to historic controls; assay type: in vivo, rat; details: animals completing the photodynamic therapy protocol
Excerpt: as §1

kindled rats [6] = experiment: Resumed daily kindling stimulations after PDT (seizure activity, after discharges); assay type: in vivo, rat; details: PDT animals, over 1 week of daily stimulation
Excerpt: We have assessed this therapy in kindled rats. Kindling is a well characterized and reproducible model for reflecting epileptogensis, the process by which a normal brain region becomes an epileptic focus. Animals are kindled with an electrode implanted into the perforant path region of the brain. Each day the animals receive a small stimulus. Initially no seizure activity is induced, but over two or three weeks, this same low level of stimulation generates increasing seizure activity until an animal has 3 consecutive tonic clonic (Stage 5) seizures. Once fully kindled, animals retain this seizure sensitivity even if not stimulated for days or months.
as §1

[7] = cited from earlier work
hippocampal cells = experiment: PpIX fluorescence in brain sections after ALA infusion (fluorescence microscopy, Texas Red filter); details: 400 mg/Kg IV, 4 hours

**Q.** Which results are given for `NCC(=O)CCC(=O)O` [ALA, 5-aminolevulinic acid]?
**A.** performance on the MWM task [1]: no significant differences; incline plane assessment (motor performance) [2]: no difference between groups; cell death (Fluorojade histofluorescence) [3]: selective cell death in the CA1 and CA3 regions of the kindled hippocampus; hemiparesis (beam walk test) (kindled rats [4]): no hemiparesis; learning impairment (Morris Water Maze) (kindled rats [5]): no hemiparesis or learning impairment; seizure activity / after discharges on resumed kindling stimulation (kindled rats [6]): no seizure activity or significant after discharges; blood-brain barrier passage ([7]; evidenced by increased PpIX concentrations in normal brain tissue after ALA administration (Hebeda, K., 1995)): can cross the blood-brain barrier; time point of maximal uptake of ALA into brain tissue ([7]; following the ALA injection (Lilge, L., et al. 2000)): four; ALA uptake in hippocampal cells (PpIX fluorescence) (hippocampal cells; fully kindled rats with elicited seizures vs fully kindled rats without elicited seizures and implanted controls, preliminary data): greater ALA uptake in hippocampal cells; PpIX fluorescence (hippocampal cells; kindled rats without elicited seizures vs implanted controls, initial results): more fluorescence than implanted controls
